Measurements from patent publication US20240418723A1, “SEQUENTIAL TREATMENTS AND BIOMARKERS TO REVERSE RESISTANCE TO KINASE INHIBITORS” (Queen Mary University of London, priority 2021, published 2024).

Columns and labels:
[1] = system: AML cell lines; assay: Small-scale drug screens: epigenetic antagonist 5 days followed by kinase inhibitor 3 days, cell viability/proliferation, CDI; type: cell-based
Experimental: The Bliss independence model was used to derive coefficients of drug interaction (CDI) values, where CDI <1 indicates significant priming by the […] (synergistic effect).
For the proliferation/viability assays, cells were seeded in T75 flasks (0.5×10^6 cells/mL of RPMI/FBS medium) and exposed for 5 days to either vehicle or epigenetic modifier. Unless otherwise specified, the final concentration for GSK2879552 (LSD1i), […] (EZH2i), pinometostat (DOT1Li) and ATRA was 1 μM while for decitabine (DNMTAi) and vorinostat (HDACi) was 100 nM; all epigenetic inhibitors were diluted in DMSO, while ATRA was diluted in Et-OH. Vehicle concentration was kept at 0.1%. […] The final concentration of DMSO was kept at 0.1%. Finally, cells were transferred to 96-well plates (100 μL per well in 3 technical replicates per condition) and cell viability and proliferation were assessed using Guava and ApoTox-Glo Triplex analyses, as indicated below.
For Guava analysis, cells were stained with Guava ViaCount reagent (Luminex #4000-0040) in 96-well plates, by mixing 150 μL of cell suspension with 75 μL of reagent, and left to incubate for a minimum of 10 minutes in the dark, after which they were processed through a Guava easyCyte flow cytometer (Luminex #0500-5005). Flow cytometry data were analysed using CytoSoft (v2.5.7). […]

[2] = system: CD34-positive human haematopoietic cells; assay: FACS analysis of healthy CD34-positive haematopoietic cells after LSD1i and MEKi sequential treatment; type: cell-based
From the text: We next tested whether the LSD1i->MEKi sequential treatment may be affecting healthy human haematopoietic (CD34-positive) cells. We observed an increase in the expression of differentiation markers, such as CD11b and CD14, but no effect on the proportion of CD34-positive cells as a result of treatment with LSD1i (FIG. 11, A to C).
Umbilical cord bloods were purchased from Anthony Nolan. Mononuclear cells (MNCs) were isolated by Ficoll prior red blood cells (RBC) lysis buffer (BioLegend, catalog #420301). Cells were then stained with CD34 immunomagnetic positive selection kit (EasySep™ Human CD34 Positive Selection Kit II, StemCell technologies, catalog #17856, according to manufacturer instructions). Purity of CD34^+ cells isolated from MNCs was assessed by flow cytometry prior to long term storage in liquid nitrogen. For AML samples, patients gave informed consent for the storage and use of their blood cells for research purposes. Experiments were performed in accordance with the Local Research Ethics Committee, as previously described. Mononuclear cells from peripheral blood or bone marrow biopsies were isolated in the BCI tissue bank facility and stored in liquid nitrogen.
For the establishment of the feeder layer, MS-5 cells were plated onto 6-well plates (for the co-culture with CD34+ cord blood cells) or 96-well plates (for the co-culture with primary AML cells) at a density of 5-10,000 cells/cm^2 (48,000 cells for each well of a 6-well plate, or 3,200 cells for each well of a 96-well plate) with IMDM medium. Cells were then incubated at 37° C. for 48 hours, or until a confluency of approximately 70% was reached, after which they were irradiated with an X-ray source at 680 cGy. Following irradiation, the growth medium was removed and replaced with complete H5100 medium, and cell were incubated at 37° C. for a further 24 hours.
Following recovery, cord blood-derived CD34+ cells or primary AML cells were added to the plates containing the established MS-5 feeder layers. CD34+ cells were added at a density of 20,000 cells/well of a 6-well plate, whilst primary AML cells were added at 8,300 cells/well of a 96-well plate. Cells were then left to incubate at 37° C. and to recover for 4 days, after which treatments were started. […] Following treatment, CD34+ cells were harvested by collecting culture medium in FACS tubes. Adherent cells were detached by briefly incubating with trypsin-EDTA, then also added to the respective FACS tubes. Cells were centrifuged at 300×g for 8 minutes, the supernatant was removed and cells were resuspended in 1 mL PBS+2% FBS, then processed for FACS analysis as described below. For primary AML, cells were resuspended and transferred to separate 96-well plates, after which they were processed for Guava ViaCount analysis, as described below. […]

[3] = LSD1i 5 days, healthy CD34-positive cells co-cultured with MS5 (FIG. 11)

SMILES: O=C(O)c1ccc(CN2CCC(CN[C@@H]3C[C@H]3c3ccccc3)CC2)cc1 [GSK2879552]
- number of AML cell lines sensitised to midostaurin, pictilisib or trametinib ([1]; LSD1i pre-treatment, out of the 12 AML cell lines tested (FIG. 2D)): 9
- -Log2 CDI (coefficient of drug interaction), sensitisation to kinase inhibitor treatment ([1]; epigenetic antagonist 5 days, then MEK, mTOR or PKC inhibitor 3 days, cell viability, Bliss independence, CDI <1 = synergistic (FIG. 2C)): one of the most potent sensitisers to kinase inhibitor treatment
- effect on normal stem/progenitor cell compartment ([2]; LSD1i 5 days then MEKi 3 days): preserved the normal stem/progenitor cell compartment
- apoptosis (Annexin V) in healthy haematopoietic cells ([2]; LSD1i 5 days then MEKi 3 days, mostly restricted to the more mature CD34-negative cells (FIG. 11D, 12)): increased apoptosis
- expression of differentiation markers, such as CD11b and CD14 [2, 3]: increase
- proportion of CD34-positive cells [2, 3]: no effect
